Results on 1 molecule are retold here after publication PMC6915869, “Immunosuppressive effects of a novel potassium channel toxin Ktx-Sp2 from Scorpiops Pocoki” (Cell & Bioscience, 2019).

For one assay, the target named is T1, mKv1.2 (Mus musculus, UniProt P63141).
T1 construct: expressed in transfected cells; host or cells: HEK293T, vector pIRES2-EGFP (bicistronic, EGFP not fused)
The assay is described as follows: Whole-cell patch-clamp, exogenous Kv1.2 in HEK293T cells. Format: cell-based. As for the experimental part:
(§1) Mouse spinal columns were removed and placed in ice cold HBSS, then laminectomies were performed and bilateral DRG were dissected out. After removal of connective tissues, DRG were transferred to a 1 ml Ca^2+/Mg^2+-free HBSS containing 2 μl saturated NaHCO3, 0.35 mg L-cysteine and 20 U papain (Worthington, Lakewood, NJ, USA), and incubated at 37 °C for 10 min. The suspension of DRG was centrifuged, the supernatant was removed, 1 ml Ca^2+/Mg^2+-free HBSS containing 4 mg collagenase type II and 1.25 mg dispase type II (Worthington) was added and incubated at 37 °C for 10 min. After digestion, neurons were pelleted, suspended in neurobasal medium containing 2% B-27 supplement, 1% L-glutamine, 100 U/ml penicillin plus 100 μg/ml streptomycin, and 50 ng/ml nerve growth factor, plated on a 12 mm coverslip coated with poly-L-lysine (10 μg/ml) and cultured under a humidified atmosphere of 5% CO2/95% air at 37 °C for 18–24 h before use. Jurkat E6-1 T cells (ATCC TIB152) and HEK293T cells (ATCC ACS4500) were maintained in RPMI medium 1640 (Invitrogen, Carlsbad, CA, USA) and Dulbecco’s modified Eagle’s medium (DMEM) (Life Technologies,GrandIsland, NY, USA), supplemented with 10% fetal bovine serum (Life Technologies), 100 units/ml penicillin, 100 μg/ml streptomycin, respectively. Cells were cultured in a humidified incubator at 37 °C with 5% CO2. The cDNAs encoding mKv1.1, mKv1.2, mKv1.3, mNav1.4, mNav1.5 and mNav1.7 were subcloned into the XhoI/BamHI sites of a bicistronic vector, pIRES2-EGFP (Clontech, USA), then transiently transfected into HEK293-T cells using Lipofectamine 2000 (Invitrogen) for electrophysiological experiments.
Whole-cell patch-clamp recordings were performed using an EPC 9 amplifier (HEKA Elektronik, Lambrecht/Pfalz, Germany) at room temperature (22–24 °C). Pipettes pulled from borosilicate glass (BF 150-86-10; Sutter Instrument Company, Novato, CA, USA) had resistances of 2–4 MΩ when filled with the internal solution. The internal pipette solution for recording Kv currents contained: KCl 140 mM, MgCl2 1 mM, EGTA 1 mM, Na2ATP 3 mM, HEPES 10 mM (pH 7.3 with KOH); for recording Na currents contained: CsCl 100 mM, CsF 40 mM, MgCl2 2 mM, HEPES 10 mM, EGTA 10 mM, D-Glucose 10 mM, Na2ATP 3 mM (pH 7.3 with CsOH). The external solution for recording Kv currents contained: KCl 5 mM, NaCl 140 mM, HEPES 10 mM, CaCl2 2 mM, MgCl2 1 mM, D-Glucose 10 mM (pH 7.4 with NaOH); for recording Na currents contained: NaCl 132 mM, KCl 5.4 mM, CaCl2 1.8 mM, MgCl2 0.8 mM, HEPES 10 mM, D-Glucose 5 mM (pH 7.4 with NaOH). Kv currents were elicited by + 50 mV, 400 ms depolarizing pulse from the holding potential of − 60 mV every 20 s, and Na currents were elicited by + 10 mV, 100 ms depolarizing pulse from the holding potential of − 60 mV every 10 s. […]
A general note: Patch clamp records ionic current or voltage across a cell membrane.

The subject of assay [1] is Ca^2+ influx in Jurkat T cells. Put plainly: Live cell Ca^2+ imaging (Fura-2) in Jurkat T cells. Format: cell-based, human. Particulars: for inhibition of Ca^2+ influx / free calcium concentration (in words): 10 μM Ktx-Sp2, 3 min pre-treatment, 10 μM CPA, then 2 mM Ca^2+. As for the experimental part: Jurkat T cells were loaded with 4 μM Fura-2 AM (Life Technologies) for 60 min at 37 °C. Cells were then washed 3 times and incubated in Hank’s Balanced Salt Solution (HBSS) for 30 min at room temperature before use. Fluorescence at 340 nm and 380 nm excitation wavelengths was recorded on an inverted Nikon Ti-E microscope equipped with 340, 360 and 380 nm excitation filter wheels using NIS-Elements imaging software (Nikon Instruments Inc., Melville, NY, USA). Fura-2 ratios (F340/F380) reflect changes in [Ca^2+]i upon stimulation. Data were obtained from 100 to 250 cells in time-lapse images from each coverslip.
To test this hypothesis we performed live cell Ca^2+ imaging using the Ca^2+ indicator dye Fura-2 to determine the effect of Ktx-Sp2 on [Ca^2+]i in the presence of intracellular Ca^2+ store depletion by cyclopiazonic acid (CPA), an inhibitor of the sarcoplasmic reticulum Ca^2+-ATPase. […] When 2 mM Ca^2+ was added to the Ca^2+-free HBSS, we observed a large Ca^2+ influx into the cells. […] At 10 μM, Ktx-Sp2 decreased the F340/F380 ratio from 0.14 ± 0.02 to 0.05 ± 0.01 (n = 278) (Fig. 5b).

In another assay the test system is mNav1.7. Put plainly: Whole-cell patch-clamp, exogenous Nav1.7 in HEK293T cells. Type of assay: cell-based. Particulars: 1 μM, +10 mV 100 ms pulse from -60 mV every 10 s. As for the experimental part: as §1, with “The cDNAs encoding mKv1.1, mKv1.2, mKv1.3, mNav1.4, mNav1.5 and mNav1.7 were subcloned into the XhoI/BamHI sites of a bicistronic vector, pIRES2-EGFP (Clontech, USA), then transiently transfected into HEK293-T cells using Lipofectamine 2000 (Invitrogen) for electrophysiological experiments.” left out

In assay [2] the test system is endogenous sodium channels expressed by DRG neurons. The assay is described as follows: Whole-cell patch-clamp, endogenous sodium channels of DRG neurons. Format: cell-based, mouse. Particulars: 1 μM; +10 mV 100 ms pulse from -60 mV every 10 s. As for the experimental part: as §1, with “The cDNAs encoding mKv1.1, mKv1.2, mKv1.3, mNav1.4, mNav1.5 and mNav1.7 were subcloned into the XhoI/BamHI sites of a bicistronic vector, pIRES2-EGFP (Clontech, USA), then transiently transfected into HEK293-T cells using Lipofectamine 2000 (Invitrogen) for electrophysiological experiments.” left out

Another assay concerns mNav1.4. The assay is described as follows: Whole-cell patch-clamp, exogenous Nav1.4 in HEK293T cells. Particulars: 1 μM, +10 mV 100 ms pulse from -60 mV every 10 s. Type of assay: cell-based. As for the experimental part: as §1, with “The cDNAs encoding mKv1.1, mKv1.2, mKv1.3, mNav1.4, mNav1.5 and mNav1.7 were subcloned into the XhoI/BamHI sites of a bicistronic vector, pIRES2-EGFP (Clontech, USA), then transiently transfected into HEK293-T cells using Lipofectamine 2000 (Invitrogen) for electrophysiological experiments.” left out

For the next assay, the target named is T2, mKv1.1 (Mus musculus, UniProt P16388).
T2 construct: expressed in transfected cells; host or cells: HEK293T, vector pIRES2-EGFP (bicistronic, EGFP not fused)
T2 sequence (P16388 whole entry, the tested form may be a part): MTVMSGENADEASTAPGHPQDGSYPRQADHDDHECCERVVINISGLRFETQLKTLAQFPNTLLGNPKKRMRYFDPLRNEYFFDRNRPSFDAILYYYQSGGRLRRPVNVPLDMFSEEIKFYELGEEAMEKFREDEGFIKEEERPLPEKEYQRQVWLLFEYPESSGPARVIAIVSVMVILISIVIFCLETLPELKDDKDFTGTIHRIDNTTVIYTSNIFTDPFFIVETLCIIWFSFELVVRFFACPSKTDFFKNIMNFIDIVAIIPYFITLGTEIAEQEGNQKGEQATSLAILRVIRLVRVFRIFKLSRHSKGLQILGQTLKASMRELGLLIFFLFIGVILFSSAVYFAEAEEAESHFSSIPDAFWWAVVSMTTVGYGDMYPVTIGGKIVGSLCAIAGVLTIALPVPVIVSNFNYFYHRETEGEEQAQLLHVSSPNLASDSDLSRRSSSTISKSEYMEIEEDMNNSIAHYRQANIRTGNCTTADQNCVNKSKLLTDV
The assay is described as follows: Whole-cell patch-clamp, exogenous Kv1.1 in HEK293T cells. Format: cell-based. As for the experimental part:
as §1
Whole-cell patch-clamp recordings were performed using an EPC 9 amplifier (HEKA Elektronik, Lambrecht/Pfalz, Germany) at room temperature (22–24 °C). Pipettes pulled from borosilicate glass (BF 150-86-10; Sutter Instrument Company, Novato, CA, USA) had resistances of 2–4 MΩ when filled with the internal solution. […]

Where [3] appears, read: +50 mV 400 ms pulse from -60 mV every 20 s, room temperature (22–24 °C), mean ± SEM.

The structures appear in SMILES notation. “Also recorded” adds a separate entry of the source. Bridge positions count the residues as written; N and C are the ends. Peptide text beside a SMILES is read from it.

T1 sequence (P63141 whole entry, the tested form may be a part): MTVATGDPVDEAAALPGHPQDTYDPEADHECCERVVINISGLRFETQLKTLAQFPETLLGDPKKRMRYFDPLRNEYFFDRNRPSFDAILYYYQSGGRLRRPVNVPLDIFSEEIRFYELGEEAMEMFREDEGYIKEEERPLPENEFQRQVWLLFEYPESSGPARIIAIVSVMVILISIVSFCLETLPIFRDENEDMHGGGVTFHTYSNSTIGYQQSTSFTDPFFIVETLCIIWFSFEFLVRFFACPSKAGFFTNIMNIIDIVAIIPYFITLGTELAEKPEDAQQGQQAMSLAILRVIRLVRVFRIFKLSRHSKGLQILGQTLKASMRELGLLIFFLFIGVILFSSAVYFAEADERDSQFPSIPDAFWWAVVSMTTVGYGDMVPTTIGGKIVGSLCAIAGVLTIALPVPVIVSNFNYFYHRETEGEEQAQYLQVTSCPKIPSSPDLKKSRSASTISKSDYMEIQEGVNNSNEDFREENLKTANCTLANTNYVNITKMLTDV

One may read the IC50 as the concentration that inhibits the measured activity by half. Low readings indicate greater potency in that assay, high ones weaker potency in that assay. `CSCC[C@@H]1NC(=O)[C@@H]2CSSC[C@H](NC(=O)[C@H](CCCCN)NC(=O)[C@H](C)NC(=O)CNC(=O)[C@H](Cc3c[nH]cn3)NC(=O)[C@H](CC(C)C)NC(=O)[C@@H]3CCCN3C(=O)[C@@H](N)CO)C(=O)N[C@@H](CO)C(=O)N[C@@H](CO)C(=O)N[C@@H](CO)C(=O)N[C@@H](CC(N)=O)C(=O)N[C@@H](CCC(N)=O)C(=O)N[C@H]3CSSC[C@H](NC(=O)[C@H](CCCNC(=N)N)NC(=O)CNC(=O)[C@H](CC(N)=O)NC1=O)C(=O)N[C@@H](CCCNC(=N)N)C(=O)N[C@H](C(=O)N[C@@H](Cc1ccc(O)cc1)C(=O)NCC(=O)O)CSSC[C@H](NC(=O)[C@@H]1CCCN1C(=O)[C@H](CCCNC(=N)N)NC(=O)[C@H]([C@@H](C)O)NC3=O)C(=O)N[C@@H](CCCNC(=N)N)C(=O)N[C@@H](Cc1ccc(O)cc1)C(=O)NCC(=O)NCC(=O)NCC(=O)N[C@@H]([C@@H](C)O)C(=O)N[C@@H](Cc1c[nH]cn1)C(=O)NCC(=O)N[C@@H](CCCCN)C(=O)N2` [Ktx-Sp2] (H-SPLHGAKCSSSNQCTRPCRYGGGTHGKCMNGRCRCYG-OH; disulfide 8-28, 14-33, 18-35 (inferred); N-terminus and C-terminus assumed): the IC50 on mKv1.2 (setting [3]) is 56.9 ± 2.32 nM; against mKv1.1 (setting [3]) it was 485 ± 25.5 nM. Further, the “blocking activity on Kv1.3 relative to Kv1.2 (Discussion)” value on mKv1.2 (Discussion section) is 4 times. Also, the “blocking activity on Kv1.2 channel (rounded, Discussion)” value on mKv1.2 (electrophysiology) is recorded as “about 57 nM”. In addition, the “blocking of Kv1.2 (in words)” value on mKv1.2 (exogenous channel) is given as “effectively block; also recorded: high blocking activity”. Besides, the entries for the “inhibition of Ca^2+ influx / free calcium concentration (in words)” value in assay [1] and in assay [1] (listed as Ktx-sp2) were “significantly reduce the free calcium concentration in Jurkat T cells; also recorded: obvious inhibition of Ca^2+ influx” and “effectively reduce the concentration of free Ca^2+ in Jurkat T cells”, respectively. Moreover, in assay [1] (10 μM Ktx-Sp2, pre-treatment 3 min, store depletion by 10 μM CPA, decreased from 0.14 ± 0.02 without peptide, n = 278, ****P ≤ 0.0001), the “F340/F380 ratio (net change induced by 2 mM extracellular Ca^2+)” value amounted to 0.05 ± 0.01. For the same molecule, the “effect on Nav1.7” value in the assay on mNav1.7 is “almost had no effect”. Besides, the “effect on endogenous sodium channels of DRG neurons” value in assay [2] is “almost had no effect”. In addition, in the assay with mNav1.4, the “effect on Nav1.4” value is listed as “almost had no effect”. At mKv1.1 (Discussion section), the “blocking activity on Kv1.3 relative to Kv1.1 (Discussion)” value turned out to be 33 times. The “blocking of Kv1.1 (in words)” value on mKv1.1 (exogenous channel) is on record as “effectively block”.
